Columns and labels:
KCNQ2/5 = biological target: T1, KCNQ2/5 (Homo sapiens, UniProt O43526+Q9NR82); test: TEVC of KCNQ2/5 heteromers expressed in Xenopus laevis oocytes; assay type: cell-based
T1 construct: expressed in transfected cells; host or cells: Xenopus laevis oocytes co-injected with cRNAs
Excerpt: (§1) We generated cRNA transcripts encoding human KCNQ1, 2, 3, and 5 (wild-type and mutant) by in vitro transcription using the mMessage mMachine kit (Thermo Fisher Scientific, Waltham, MA, USA) according to manufacturer’s instructions, after vector linearization, from cDNA sub-cloned into expression vectors (pTLNx and pXOOM) incorporating Xenopus laevis β-globin 5’ and 3’ UTRs flanking the coding region to enhance translation and cRNA stability. Mutant KCNQ cDNAs were generated by Genscript (Piscataway, NJ, USA) and cRNAs made as above. We injected defolliculated stage V and VI Xenopus laevis oocytes (Xenoocyte, Dexter, MI, USA) with KCNQ cRNAs (2–10 ng) and incubated the oocytes at 16 °C in ND96 oocyte storage solution containing penicillin and streptomycin, with daily washing, for 2–4 days prior to two-electrode voltage-clamp (TEVC) recording.
(§2) We performed TEVC at room temperature using an OC-725C amplifier (Warner Instruments, Hamden, CT, USA) and pClamp10 software (Molecular Devices, Sunnyvale, CA, USA) 2–4 days after cRNA injection. We placed oocytes in a small-volume oocyte bath (Warner) and viewed them with a dissection microscope for cellular electrophysiology. We sourced chemicals from Sigma-Aldrich (St. Louis, MO, USA) and Combi-Blocks (San Diego, CA, USA). We studied effects of Salvia rosmarinus extracts and of compounds, solubilized directly in bath solution (in mM): 96 NaCl, 4 KCl, 1 MgCl2, 1 CaCl2, 10 HEPES (pH 7.6). We introduced extracts or compounds into the oocyte recording bath by gravity perfusion at a constant flow of 1 ml per minute for 3 min prior to recording. Pipettes were of 1-2 MΩ resistance when filled with 3 M KCl. We recorded currents in response to voltage pulses between −120 mV and +40 mV at 10 mV intervals from a holding potential of −80 mV, to yield current-voltage relationships and examine activation kinetics. We analyzed data using Clampfit (Molecular Devices) and Graphpad Prism software (GraphPad, San Diego, CA, USA), stating values as mean ± SEM. We plotted raw or normalized tail currents versus prepulse voltage and fitted with a single Boltzmann function:1 g=(A1−A2)/1+exp[V1/2−V/Vs]y+A2 where g is the normalized tail conductance, A1 is the initial value at -∞, A2 is the final value at +∞, V1/2 is the half-maximal voltage of activation and Vs the slope factor. We fitted activation and deactivation kinetics with single exponential functions.

mice = details: acute toxicity; cited from earlier work
KCNQ3*-M240A = KCNQ3*-M240A (Homo sapiens, UniProt O43525, A315T/M240A); test: TEVC of mutant KCNQ3*-M240A in oocytes; assay type: cell-based; details: 100 µM
Excerpt: as §1
as §2, with “We plotted raw or normalized tail currents versus prepulse voltage and fitted with a single Boltzmann function:1 g=(A1−A2)/1+exp[V1/2−V/Vs]y+A2 where g is the normalized tail conductance, A1 is the initial value at -∞, A2 is the final value at +∞, V1/2 is the half-maximal voltage of activation and Vs the slope factor. We fitted activation and deactivation kinetics with single exponential functions.” left out

[1] = biological target: T2, KCNQ3* coexpressed with Danio rerio VSP (DrVSP) (Homo sapiens, UniProt O43525, A315T); test: TEVC of KCNQ3* coexpressed with DrVSP, PIP2 depletion at +120 mV; assay type: cell-based; details: 5 µM
T2 construct: expressed in transfected cells; host or cells: Xenopus laevis oocytes
Excerpt: Under baseline conditions, binding of the […], lipid-derived signaling molecule phosphatidylinositol 4,5-bisphosphate (PIP2) to KCNQ3 (and other KCNQ isoforms) is required for efficient coupling of the voltage sensor to pore opening and thus voltage-dependent gating[22],[23]. […] Another strategy for PIP2 reduction is to express a voltage-sensitive phosphatase (VSP) that reduces PIP2 levels upon membrane depolarization. […]
(§3) We performed TEVC at room temperature using an OC-725C amplifier (Warner Instruments, Hamden, CT, USA) and pClamp10 software (Molecular Devices, Sunnyvale, CA, USA) 2–4 days after cRNA injection. […] We recorded currents in response to voltage pulses between −120 mV and +40 mV at 10 mV intervals from a holding potential of −80 mV, to yield current-voltage relationships and examine activation kinetics. We analyzed data using Clampfit (Molecular Devices) and Graphpad Prism software (GraphPad, San Diego, CA, USA), stating values as mean ± SEM. […]

KCNQ3*-G244A = KCNQ3*-G244A (Homo sapiens, UniProt O43525, A315T/G244A); test: TEVC of mutant KCNQ3*-G244A in oocytes; assay type: cell-based; details: 100 µM
Excerpt: as §1
as §2, with “We plotted raw or normalized tail currents versus prepulse voltage and fitted with a single Boltzmann function:1 g=(A1−A2)/1+exp[V1/2−V/Vs]y+A2 where g is the normalized tail conductance, A1 is the initial value at -∞, A2 is the final value at +∞, V1/2 is the half-maximal voltage of activation and Vs the slope factor. We fitted activation and deactivation kinetics with single exponential functions.” left out

KCNQ5 = KCNQ5 (Homo sapiens, UniProt Q9NR82); test: TEVC of KCNQ5 homomers expressed in Xenopus laevis oocytes; assay type: cell-based
Excerpt: as §1, §2

GABAA receptor = system: GABAA receptor; parameters: method as in PMID 1378214; details: rat brain membranes in vitro; cited from earlier work
KCNQ3*-R243A = KCNQ3*-R243A (Homo sapiens, UniProt O43525, A315T/R243A); test: TEVC of mutant KCNQ3*-R243A in oocytes; assay type: cell-based; details: 100 µM
Excerpt: as §1, §3

KCNQ2/3 = biological target: T3, KCNQ2/3 (Homo sapiens, UniProt O43525+O43526); test: TEVC of KCNQ2/3 heteromers expressed in Xenopus laevis oocytes; assay type: cell-based
T3 construct: expressed in transfected cells; host or cells: Xenopus laevis oocytes co-injected with cRNAs
Excerpt: as §1
as §2, with “We” for “We performed TEVC at room temperature using an OC-725C amplifier (Warner Instruments, Hamden, CT, USA) and pClamp10 software (Molecular Devices, Sunnyvale, CA, USA) 2–4 days after cRNA injection. We”, “We recorded currents in response to voltage pulses between −120 mV and +40 mV at 10 mV intervals from a holding potential of −80 mV, to yield current-voltage relationships and examine activation kinetics.” left out

## CC(C)c1cc2c(c(O)c1O)[C@@]1(C(=O)O)CCCC(C)(C)[C@@H]1CC2 [Carnosic acid, carnosic acid]
KCNQ2/5; 0.1 µM
  V0.5 Normalized tail current: -40.58 ± 1.11 mV
KCNQ2/5; 1 µM
  V0.5 Normalized tail current: -44.54 ± 0.73 mV
KCNQ2/5; 3 µM
  V0.5 Normalized tail current: -47.07 ± 0.55 mV
KCNQ2/5; 10 µM
  V0.5 Normalized tail current: -46.44 ± 0.68 mV
KCNQ2/5; 30 µM
  V0.5 Normalized tail current: -45.89 ± 0.76 mV
KCNQ2/5; 100 µM
  V0.5 Normalized tail current: -46.50 ± 0.97 mV
KCNQ2/5; EC50 EM
  EC50: 4.76 ± 0.34 µM
KCNQ2/5; EC50 V0.5 Activation
  EC50: 0.74 ± 0.12 µM
mice
  oral LD50: 7100 mg/kg
KCNQ3*-M240A
  Slope: 17.31 ± 1.56 mV
  V0.5 Normalized tail current: -66.81 ± 1.80 mV
  constitutive current at −120 mV: 20%
[1]
  effect on DrVSP-induced KCNQ3* current decay: reduced or prevented
KCNQ3*-G244A
  Slope: 11.55 ± 1.94 mV
  V0.5 Normalized tail current: -97.68 ± 3.18 mV
  carnosic acid effects compared with KCNQ3*: indistinguishably
KCNQ5; 0.1 µM
  V0.5 Normalized tail current: -42.57 ± 0.34 mV
KCNQ5; 1 µM
  V0.5 Normalized tail current: -42.20 ± 0.27 mV
KCNQ5; 3 µM
  V0.5 Normalized tail current: -42.54 ± 0.31 mV
KCNQ5; 10 µM
  V0.5 Normalized tail current: -43.64 ± 0.36 mV
KCNQ5; 30 µM
  V0.5 Normalized tail current: -45.91 ± 0.40 mV
KCNQ5; 100 µM
  V0.5 Normalized tail current: -50.99 ± 0.49 mV
  constitutively activated current at −120 mV: ~ 5%
KCNQ5; EC50 EM
  EC50: 43.4 ± 0.28 µM
KCNQ5; EC50 V0.5 Activation
  EC50: 231 ± 75 µM
GABAA receptor
  effect on binding of [35S]tert-butylbicyclophosphorothionate: decrease the binding affinity
KCNQ3*-R243A
  Slope: 9.48 ± 0.54 mV
  V0.5 Normalized tail current: -64.93 ± 0.61 mV
KCNQ2/3; 0.1 µM
  V0.5 Normalized tail current: -44.63 ± 0.46 mV
KCNQ2/3; 1 µM
  V0.5 Normalized tail current: -45.44 ± 0.41 mV
KCNQ2/3; 3 µM
  V0.5 Normalized tail current: -46.40 ± 0.45 mV
KCNQ2/3; 10 µM
  V0.5 Normalized tail current: -47.94 ± 0.61 mV
KCNQ2/3; 30 µM
  V0.5 Normalized tail current: -49.09 ± 0.55 mV
KCNQ2/3; 100 µM
  V0.5 Normalized tail current: -49.95 ± 0.65 mV
KCNQ2/3; 0.1-100 µM
  activity across the concentration range tested: only weakly active
